Test results from US12116343B2, “Inhibitors of APOL1 and methods of using same” (Vertex Pharmaceuticals Incorporated, priority 2020, dated 2024).

Each compound was assayed against T1, APOL1 G1 Protein (Homo sapiens, UniProt O14791, I384M/S342G) (assay: Trypanosoma brucei brucei lysis assay using APOL1 recombinant protein (AlamarBlue viability)). Settings: Table 24, Compounds 287 to 465; read-out: Trypanosoma Assay (IC50).
T1 sequence (O14791 28-398 S342G/I384M): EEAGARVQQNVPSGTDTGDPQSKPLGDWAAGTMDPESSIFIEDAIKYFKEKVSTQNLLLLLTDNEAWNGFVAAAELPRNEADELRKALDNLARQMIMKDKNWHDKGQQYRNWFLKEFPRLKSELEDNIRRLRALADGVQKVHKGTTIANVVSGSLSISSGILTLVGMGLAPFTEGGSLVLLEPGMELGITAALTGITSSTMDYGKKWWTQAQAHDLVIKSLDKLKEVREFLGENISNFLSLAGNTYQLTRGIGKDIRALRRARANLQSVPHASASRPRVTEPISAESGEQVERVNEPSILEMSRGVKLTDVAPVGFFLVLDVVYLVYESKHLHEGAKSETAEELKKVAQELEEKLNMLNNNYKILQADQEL
Type: cell-based
Outline: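 Bloodstream-form T. b. brucei Lister 427 VSG 221, 120,000 parasites/well in phenol red-free, FBS-free medium, lysed by recombinant APOL1 G1 with compound (10-point dose response, 0.1% DMSO final). Viability read by AlamarBlue fluorescence against a parasite standard curve.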

Structure (SMILES) | IC50 [nM]
NC(=O)CNCC1CC(c2c(-c3ccc(F)cc3)[nH]c3c(F)cc(F)cc23)C1 (stereo not shown) [Compound 433, 2-(((3-(5,7-difluoro-2-(4-fluorophenyl)-1H-indol-3-yl)cyclobutyl)methyl)amino)acetamide] | < 250
NC(=O)CNC[C@H]1C[C@@H](c2c(-c3ccc(F)cc3)[nH]c3c(F)cc(F)cc32)C1 [Compound 447] | < 250
NC(=O)CC1CC(c2c(-c3ccc(F)cc3)[nH]c3c(F)cc(F)cc23)C1 (stereo not shown) [Compound 455] | < 250

Same assay, conditions: Trypanosoma Assay (IC50), Trypanosoma brucei brucei lysis, recombinant APOL1, AlamarBlue

Structure (SMILES) | IC50 [nM]
O=C([C@H]1C[C@H](c2c(-c3ccc(F)cc3)[nH]c3c(F)cc(F)cc32)C1)N1CCC(O)(O)CC1 [Compound 127] | 250 to 1000

Same assay, conditions: Trypanosoma brucei brucei lysis, recombinant APOL1, AlamarBlue; read-out: Trypanosoma Assay (IC50)

Structure (SMILES) | IC50 [nM]
CN1CC(CNC(=O)[C@H]2C[C@H](c3c(-c4ccc(F)cc4)[nH]c4c(F)cc(F)cc43)C2)CC1=O (stereo partly shown) [Compound 70] | > 1000
CC(N)(C(=O)NC(=O)[C@H]1C[C@H](c2c(-c3ccc(F)cc3)[nH]c3c(F)cc(F)cc32)C1)C(F)(F)F (stereo partly shown) [Compound 60] | 250 to 1000
O=C(NCC1CCOCC1)[C@H]1C[C@H](c2c(-c3ccc(F)cc3)[nH]c3c(F)cc(F)cc32)C1 [Compound 42] | > 1000
Cn1ccc(CNC(=O)[C@H]2C[C@H](c3c(-c4ccc(F)cc4)[nH]c4c(F)cc(F)cc43)C2)n1 [Compound 71] | < 250
CC(C)(O)C1CN(C(=O)[C@H]2C[C@H](c3c(-c4ccc(F)cc4)[nH]c4c(F)cc(F)cc43)C2)C1 [Compound 86] | > 1000
CC(C)(NC(=O)[C@H]1C[C@H](c2c(-c3ccc(F)cc3)[nH]c3c(F)cc(F)cc32)C1)C(=O)N1CCOCC1 [Compound 66] | > 1000
NC(=O)[C@@H]1CCCN1C(=O)[C@H]1C[C@H](c2c(-c3ccc(F)cc3)[nH]c3c(F)cc(F)cc32)C1 [Compound 88] | > 1000
C[C@@H](NC(=O)[C@H]1C[C@H](c2c(-c3ccc(F)cc3)[nH]c3c(F)cc(F)cc32)C1)C(=O)N(C)C [Compound 61] | > 1000
O=C(NCC1(CO)COC1)[C@H]1C[C@H](c2c(-c3ccc(F)cc3)[nH]c3c(F)cc(F)cc32)C1 [Compound 83] | > 1000
O=C([C@H]1C[C@H](c2c(-c3ccc(F)cc3)[nH]c3c(F)cc(F)cc32)C1)N1CCC(O)(CO)CC1 [Compound 87] | > 1000
O=C(OC1CN(C(=O)[C@H]2C[C@H](c3c(-c4ccc(F)cc4)[nH]c4c(F)cc(F)cc43)C2)C1)C1CCOCC1 [Compound 85] | < 250
Cn1cnc(CNC(=O)[C@H]2C[C@H](c3c(-c4ccc(F)cc4)[nH]c4c(F)cc(F)cc43)C2)c1 [Compound 48] | < 250
CC(NC(=O)[C@H]1C[C@H](c2c(-c3ccc(F)cc3)[nH]c3c(F)cc(F)cc32)C1)c1ccnn1C (mixture of isomers) [Compound 76] | > 1000
O=C(NC(CO)CF)[C@H]1C[C@H](c2c(-c3ccc(F)cc3)[nH]c3c(F)cc(F)cc32)C1 (stereo partly shown) [Compound 78] | < 250
O=C1NCCC1NC(=O)[C@H]1C[C@H](c2c(-c3ccc(F)cc3)[nH]c3c(F)cc(F)cc32)C1 (stereo partly shown) [Compound 2] | < 250
CC1C[C@H](NC(=O)[C@H]2C[C@H](c3c(-c4ccc(F)cc4)[nH]c4c(F)cc(F)cc43)C2)C(=O)N1 (mixture of isomers) [Compound 84] | 250 to 1000
C[C@H](O)CNC(=O)[C@H]1C[C@H](c2c(-c3ccc(F)cc3)[nH]c3c(F)cc(F)cc32)C1 [Compound 82] | 250 to 1000
NCCCNC(=O)[C@H]1C[C@H](c2c(-c3ccc(F)cc3)[nH]c3c(F)cc(F)cc32)C1 [Compound 4] | < 250
CC(NC(=O)[C@H]1C[C@H](c2c(-c3ccc(F)cc3)[nH]c3c(F)cc(F)cc32)C1)C(N)=O (mixture of isomers) [Compound 68] | 250 to 1000
NC(=O)C1CCCCN1C(=O)[C@H]1C[C@H](c2c(-c3ccc(F)cc3)[nH]c3c(F)cc(F)cc32)C1 (stereo partly shown) [Compound 92] | 250 to 1000
O=C1NCC[C@H]1NC(=O)[C@H]1C[C@H](c2c(-c3ccc(F)cc3)[nH]c3c(F)cc(F)cc32)C1 [Compound 45] | < 250
CN(C(=O)[C@H]1C[C@H](c2c(-c3ccc(F)cc3)[nH]c3c(F)cc(F)cc32)C1)C1(CO)CC1 [Compound 58] | 250 to 1000
CC(NC(=O)[C@H]1C[C@H](c2c(-c3ccc(F)cc3)[nH]c3c(F)cc(F)cc32)C1)c1ccn[nH]1 (mixture of isomers) [Compound 81] | 250 to 1000
COCC1(CNC(=O)[C@H]2C[C@H](c3c(-c4ccc(F)cc4)[nH]c4c(F)cc(F)cc43)C2)CC1 [Compound 53] | > 1000
O=C([C@H]1C[C@H](c2c(-c3ccc(F)cc3)[nH]c3c(F)cc(F)cc32)C1)N1C[C@@H](CO)OCC12CC2 [Compound 57] | > 1000
CN(CC(C)(C)O)C(=O)[C@H]1C[C@H](c2c(-c3ccc(F)cc3)[nH]c3c(F)cc(F)cc32)C1 [Compound 93] | > 1000
O=C(NCCO)[C@H]1C[C@H](c2c(-c3ccc(F)cc3)[nH]c3c(F)cc(F)cc32)C1 [Compound 46, 3-[5,7-difluoro-2-(4-fluorophenyl)-1H-indol-3-yl]-N-(2-hydroxyethyl)cyclobutanecarboxamide] | < 250

Structure (SMILES) | IC50 [nM]
O=C(CNC(=O)[C@H]1C[C@H](c2c(-c3ccc(F)cc3)[nH]c3c(F)cc(F)cc32)C1)NC1CC1 [Compound 50] | > 1000
NCC(O)CNC(=O)[C@H]1C[C@H](c2c(-c3ccc(F)cc3)[nH]c3c(F)cc(F)cc32)C1 (stereo partly shown) [Compound 3] | 250 to 1000
O=C1CC(NC(=O)[C@H]2C[C@H](c3c(-c4ccc(F)cc4)[nH]c4c(F)cc(F)cc43)C2)CN1 (mixture of isomers) [Compound 44] | > 1000
Cc1cc(CNC(=O)[C@H]2C[C@H](c3c(-c4ccc(F)cc4)[nH]c4c(F)cc(F)cc43)C2)nn1C [Compound 73] | 250 to 1000
CC(O)CN(C)C(=O)[C@H]1C[C@H](c2c(-c3ccc(F)cc3)[nH]c3c(F)cc(F)cc32)C1 (stereo partly shown) [Compound 90] | 250 to 1000
CCOCC1(CNC(=O)[C@H]2C[C@H](c3c(-c4ccc(F)cc4)[nH]c4c(F)cc(F)cc43)C2)CC1 [Compound 55] | > 1000
CN(CC1(CO)CC1)C(=O)[C@H]1C[C@H](c2c(-c3ccc(F)cc3)[nH]c3c(F)cc(F)cc32)C1 [Compound 49] | > 1000
C[C@H](NC(=O)[C@H]1C[C@H](c2c(-c3ccc(F)cc3)[nH]c3c(F)cc(F)cc32)C1)C(=O)N(C)C [Compound 65] | 250 to 1000
COCC1(NC(=O)[C@H]2C[C@H](c3c(-c4ccc(F)cc4)[nH]c4c(F)cc(F)cc43)C2)CC1 [Compound 54] | < 250
CC(NC(=O)[C@H]1C[C@H](c2c(-c3ccc(F)cc3)[nH]c3c(F)cc(F)cc32)C1)c1ccn(C)n1 (mixture of isomers) [Compound 75] | < 250
CN1CCN(C(=O)CNC(=O)[C@H]2C[C@H](c3c(-c4ccc(F)cc4)[nH]c4c(F)cc(F)cc43)C2)CC1 [Compound 67] | > 1000
O=C(NC1(CO)CC1)[C@H]1C[C@H](c2c(-c3ccc(F)cc3)[nH]c3c(F)cc(F)cc32)C1 [Compound 47] | < 250
CCNC(=O)[C@@H]1CCCN1C(=O)[C@H]1C[C@H](c2c(-c3ccc(F)cc3)[nH]c3c(F)cc(F)cc32)C1 [Compound 64] | > 1000
NC(=O)C1(NC(=O)[C@H]2C[C@H](c3c(-c4ccc(F)cc4)[nH]c4c(F)cc(F)cc43)C2)CC1 [Compound 56] | 250 to 1000
CC(C)N1CCN(C(=O)[C@H]2C[C@H](c3c(-c4ccc(F)cc4)[nH]c4c(F)cc(F)cc43)C2)CC1=O [Compound 63] | > 1000
NC(=O)CNC(=O)[C@H]1C[C@H](c2c(-c3ccc(F)cc3)[nH]c3c(F)cc(F)cc32)C1 [Compound 1, N-(2-amino-2-oxo-ethyl)-3-[5,7-difluoro-2-(4-fluorophenyl)-1H-indol-3-yl]cyclobutanecarboxamide] | < 250
O=C(NCC1(O)CCCC1)[C@H]1C[C@H](c2c(-c3ccc(F)cc3)[nH]c3c(F)cc(F)cc32)C1 [Compound 69] | > 1000
COCc1cc(CNC(=O)[C@H]2C[C@H](c3c(-c4ccc(F)cc4)[nH]c4c(F)cc(F)cc43)C2)n[nH]1 [Compound 72] | > 1000
CC1(O)CN(C(=O)[C@H]2C[C@H](c3c(-c4ccc(F)cc4)[nH]c4c(F)cc(F)cc43)C2)C1 [Compound 74] | 250 to 1000
CN(C)C(=O)CN(C)C(=O)[C@H]1C[C@H](c2c(-c3ccc(F)cc3)[nH]c3c(F)cc(F)cc32)C1 [Compound 62] | > 1000
O=C([C@H]1C[C@H](c2c(-c3ccc(F)cc3)[nH]c3c(F)cc(F)cc32)C1)N1CCCCC1CCO (stereo partly shown) [Compound 94] | > 1000
CC(=O)NC1CCCN(C(=O)[C@H]2C[C@H](c3c(-c4ccc(F)cc4)[nH]c4c(F)cc(F)cc43)C2)C1 (stereo partly shown) [Compound 91] | > 1000
CN(CCO)C(=O)[C@H]1C[C@H](c2c(-c3ccc(F)cc3)[nH]c3c(F)cc(F)cc32)C1 [Compound 79] | < 250
O=C([C@H]1C[C@H](c2c(-c3ccc(F)cc3)[nH]c3c(F)cc(F)cc32)C1)N(CCO)C1CC1 [Compound 52] | 250 to 1000
O=C(NCC1CC(F)(F)C1)[C@H]1C[C@H](c2c(-c3ccc(F)cc3)[nH]c3c(F)cc(F)cc32)C1 [Compound 41] | > 1000
CN(CC(N)=O)C(=O)[C@H]1C[C@H](c2c(-c3ccc(F)cc3)[nH]c3c(F)cc(F)cc32)C1 [Compound 51] | 250 to 1000
O=C(NCC1(O)CCCCC1)[C@H]1C[C@H](c2c(-c3ccc(F)cc3)[nH]c3c(F)cc(F)cc32)C1 [Compound 80] | > 1000
